Tested on: NCI-H522
Experiment: Growth inhibition of human NCI-H522 cells assessed as cell growth at 10 uM incubated for 48 hrs by sulforhodamine B assay relative to control
Assay type: functional
Details: NCI-H522, 48 h, read-out: Activity

| SMILES | growth at 10 µM [%] |
| --- | --- |
| COc1cc(Cl)cc(-c2nn(-c3cccc(NC(=O)c4ccc(Cl)c(Cl)c4)c3)cc2-c2ccncc2)c1 | 53.7 |

From ChEMBL document CHEMBL4308841, “Synthesis, in vitro antiproliferative activity, and kinase inhibitory effects of pyrazole-containing diarylureas and diarylamides” (Eur J Med Chem, 2018)
